Source: ChEMBL document CHEMBL3886253, “Imidazolidinones and analogs exhibiting anti-cancer and anti-proliferative activities” (2015)
pIC50: −log10 of the molar value.

Columns and labels:
[1] = molecular target: Hepatocyte growth factor receptor (Homo sapiens, UniProt P08581); assay: (§1) In Vitro Receptor Tyrosine Kinase Assay: These tests measure the ability of compounds to inhibit the enzymatic activity of recombinant human c-Met/HGF receptor and VEGF receptor enzymatic activity. A 1.3-kb cDNA corresponding to the intracellular domain of c-Met or c-Met IC (Genbank accession number NP000236-1 amino acid 1078 to 1337) is cloned into the BamHI/XhoI sites of the pBlueBacHis2A vector (Invitrogen) for the production of a histidine-tagged version of that enzyme. This construct is used to generate recombinant baculovirus using the Bac-N-Blue¿ system according to the manufacturer's instructions (Invitrogen). The c-Met IC protein is expressed in Hi-5 cells (Trichoplusia Ni) upon infection with recombinant baculovirus construct. Briefly, Hi-5 cells grown in suspension and maintained in serum-free medium (Sf900 II supplemented with gentamycin) at a cell density of about 2x10^6 cells/ml are infected with the above-mentioned viruses at a multiplicity of infection (MOI) of 0.2 during 72 hours at 27 C.
Chain of Hepatocyte growth factor receptor (P08581 whole entry, the tested form may be a part): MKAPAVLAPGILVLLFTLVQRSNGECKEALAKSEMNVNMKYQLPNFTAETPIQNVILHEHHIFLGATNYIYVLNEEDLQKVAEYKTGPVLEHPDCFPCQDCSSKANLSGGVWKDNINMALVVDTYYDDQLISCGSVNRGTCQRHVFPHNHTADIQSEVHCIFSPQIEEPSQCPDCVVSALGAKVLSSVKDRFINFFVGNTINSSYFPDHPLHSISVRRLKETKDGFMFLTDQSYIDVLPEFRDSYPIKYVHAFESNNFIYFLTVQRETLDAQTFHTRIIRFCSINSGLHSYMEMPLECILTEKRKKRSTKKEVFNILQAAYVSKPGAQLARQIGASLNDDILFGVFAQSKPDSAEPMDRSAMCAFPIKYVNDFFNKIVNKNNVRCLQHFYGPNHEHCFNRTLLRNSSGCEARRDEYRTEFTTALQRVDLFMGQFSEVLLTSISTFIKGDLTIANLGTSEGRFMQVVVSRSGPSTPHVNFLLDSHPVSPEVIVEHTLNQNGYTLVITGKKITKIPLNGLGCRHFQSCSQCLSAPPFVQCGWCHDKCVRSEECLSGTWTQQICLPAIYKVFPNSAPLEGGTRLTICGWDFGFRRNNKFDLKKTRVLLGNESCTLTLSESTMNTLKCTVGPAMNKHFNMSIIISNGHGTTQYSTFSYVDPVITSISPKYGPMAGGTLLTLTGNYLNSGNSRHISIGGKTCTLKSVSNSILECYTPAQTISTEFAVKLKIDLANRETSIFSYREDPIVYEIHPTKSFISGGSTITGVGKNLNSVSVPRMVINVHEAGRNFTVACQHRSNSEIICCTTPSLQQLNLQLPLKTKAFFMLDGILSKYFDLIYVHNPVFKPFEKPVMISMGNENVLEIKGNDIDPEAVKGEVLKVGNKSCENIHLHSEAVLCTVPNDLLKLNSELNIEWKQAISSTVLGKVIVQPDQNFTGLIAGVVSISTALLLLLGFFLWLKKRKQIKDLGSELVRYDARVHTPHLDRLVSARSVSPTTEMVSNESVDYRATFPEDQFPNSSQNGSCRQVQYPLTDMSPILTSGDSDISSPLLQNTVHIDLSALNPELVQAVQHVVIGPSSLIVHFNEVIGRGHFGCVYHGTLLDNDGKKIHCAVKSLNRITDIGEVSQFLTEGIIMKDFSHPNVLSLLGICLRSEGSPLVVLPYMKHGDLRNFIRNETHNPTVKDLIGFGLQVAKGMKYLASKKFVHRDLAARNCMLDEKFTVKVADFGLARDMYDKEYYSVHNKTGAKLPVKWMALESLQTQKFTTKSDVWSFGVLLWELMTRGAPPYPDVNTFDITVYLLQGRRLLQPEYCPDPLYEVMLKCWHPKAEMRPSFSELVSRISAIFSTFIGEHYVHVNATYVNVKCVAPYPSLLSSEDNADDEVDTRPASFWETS

[2] = molecular target: Vascular endothelial growth factor receptor 2 (Homo sapiens, UniProt P35968); assay: as §1
Chain of Vascular endothelial growth factor receptor 2 (P35968 whole entry): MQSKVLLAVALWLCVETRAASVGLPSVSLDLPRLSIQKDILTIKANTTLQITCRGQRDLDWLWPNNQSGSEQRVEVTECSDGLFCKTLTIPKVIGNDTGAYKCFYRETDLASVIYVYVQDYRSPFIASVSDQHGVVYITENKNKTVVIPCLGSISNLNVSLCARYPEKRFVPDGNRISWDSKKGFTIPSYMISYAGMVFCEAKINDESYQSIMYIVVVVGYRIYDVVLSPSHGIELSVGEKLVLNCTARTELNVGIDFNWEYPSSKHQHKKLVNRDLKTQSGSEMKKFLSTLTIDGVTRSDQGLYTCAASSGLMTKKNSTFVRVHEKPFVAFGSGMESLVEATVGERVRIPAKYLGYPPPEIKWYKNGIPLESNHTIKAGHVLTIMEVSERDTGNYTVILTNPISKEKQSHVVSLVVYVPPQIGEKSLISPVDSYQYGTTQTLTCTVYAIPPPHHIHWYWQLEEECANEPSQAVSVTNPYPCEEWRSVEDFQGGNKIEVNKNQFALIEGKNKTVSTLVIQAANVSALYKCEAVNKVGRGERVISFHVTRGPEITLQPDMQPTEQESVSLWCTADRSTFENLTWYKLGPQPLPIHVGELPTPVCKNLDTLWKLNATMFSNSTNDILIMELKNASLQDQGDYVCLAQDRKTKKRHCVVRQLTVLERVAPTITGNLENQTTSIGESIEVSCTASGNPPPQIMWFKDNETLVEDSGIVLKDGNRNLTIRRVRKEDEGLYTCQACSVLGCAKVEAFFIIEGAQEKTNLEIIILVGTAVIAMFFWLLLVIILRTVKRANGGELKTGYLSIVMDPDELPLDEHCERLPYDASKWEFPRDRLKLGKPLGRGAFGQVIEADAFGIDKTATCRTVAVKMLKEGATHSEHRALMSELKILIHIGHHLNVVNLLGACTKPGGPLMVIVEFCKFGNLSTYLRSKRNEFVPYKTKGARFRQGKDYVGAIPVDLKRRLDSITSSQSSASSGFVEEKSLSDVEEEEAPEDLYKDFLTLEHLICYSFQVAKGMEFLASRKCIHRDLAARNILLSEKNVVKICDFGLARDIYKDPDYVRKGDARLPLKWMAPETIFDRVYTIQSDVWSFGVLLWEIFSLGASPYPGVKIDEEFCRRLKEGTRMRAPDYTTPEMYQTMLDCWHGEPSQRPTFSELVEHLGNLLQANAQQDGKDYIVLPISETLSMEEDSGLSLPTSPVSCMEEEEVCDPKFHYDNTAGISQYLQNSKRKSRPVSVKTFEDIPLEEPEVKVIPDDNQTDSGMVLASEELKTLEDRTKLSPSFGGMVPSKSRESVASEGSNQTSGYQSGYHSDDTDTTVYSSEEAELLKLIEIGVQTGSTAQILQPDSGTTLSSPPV

[3] = molecular target: Macrophage colony-stimulating factor 1 receptor (Homo sapiens, UniProt P07333); assay: Enzymatic Assay: Activity of unphosphorylated c-FMS kinase (uFMS, Seq. ID no. 1) was determined by following the production of ADP from the FMS kinase reaction with ATP and poly E4Y as substrates through coupling with the pyruvate kinase/lactate dehydrogenase system (e.g., Schindler et al. Science (2000) 289: 1938-1942). In this assay, the oxidation of NADH (thus the decrease at A340 nm) was continuously monitored spectrophometrically. The reaction mixture (100 µL) contained FMS (purchased from Millipore) (10 nM), polyE4Y (1 mg/mL), MgCl2 (10 mM), pyruvate kinase (4 units), lactate dehydrogenase (0.7 units), phosphoenol pyruvate (1 mM), NADH (0.28 mM) and ATP (500 µM) in 90 mM Tris buffer containing 0.2% octyl-glucoside and 1% DMSO, pH 7.5. The inhibition reaction was started by mixing serial diluted test compound with the above reaction mixture. The absorption at 340 nm was monitored continuously for 4 hours at 30° C. on Synergy 2 plate reader.
Chain of Macrophage colony-stimulating factor 1 receptor (P07333 whole entry): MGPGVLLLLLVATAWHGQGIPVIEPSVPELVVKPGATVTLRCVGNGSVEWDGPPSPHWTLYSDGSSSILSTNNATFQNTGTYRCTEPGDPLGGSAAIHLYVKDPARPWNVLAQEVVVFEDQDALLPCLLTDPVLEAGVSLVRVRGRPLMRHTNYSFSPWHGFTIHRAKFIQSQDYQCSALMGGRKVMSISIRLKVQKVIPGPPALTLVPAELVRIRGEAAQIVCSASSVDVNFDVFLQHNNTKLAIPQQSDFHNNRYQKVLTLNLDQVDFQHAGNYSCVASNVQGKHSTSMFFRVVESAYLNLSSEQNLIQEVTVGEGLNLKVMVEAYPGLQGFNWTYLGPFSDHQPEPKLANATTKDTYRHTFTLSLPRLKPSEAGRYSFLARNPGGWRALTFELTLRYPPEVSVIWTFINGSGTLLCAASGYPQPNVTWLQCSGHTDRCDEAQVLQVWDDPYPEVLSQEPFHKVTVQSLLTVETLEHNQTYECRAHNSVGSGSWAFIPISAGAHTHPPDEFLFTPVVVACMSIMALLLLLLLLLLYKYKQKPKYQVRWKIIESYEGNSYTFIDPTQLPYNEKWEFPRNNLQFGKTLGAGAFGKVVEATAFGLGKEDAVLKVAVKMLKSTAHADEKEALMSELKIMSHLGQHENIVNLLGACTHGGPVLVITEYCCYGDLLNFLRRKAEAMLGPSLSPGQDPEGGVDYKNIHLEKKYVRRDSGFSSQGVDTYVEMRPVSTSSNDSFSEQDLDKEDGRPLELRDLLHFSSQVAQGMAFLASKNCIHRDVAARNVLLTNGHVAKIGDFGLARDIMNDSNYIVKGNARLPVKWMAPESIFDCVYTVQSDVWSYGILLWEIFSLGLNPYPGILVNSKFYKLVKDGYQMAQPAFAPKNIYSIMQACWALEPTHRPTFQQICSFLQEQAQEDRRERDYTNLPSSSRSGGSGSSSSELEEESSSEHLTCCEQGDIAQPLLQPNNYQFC

Structure (SMILES): Cn1cc(-c2cc(Oc3ccc(NC(=O)N4CCN(c5ccc(F)cc5)C4=O)nc3)ccn2)cn1
- pIC50 [1]: 6.71
- pIC50 [2]: 6.00
- pIC50 [3]: 7.89
